Test results reported in patent US20240132431A1, “METHOD FOR ALKYLATING ACIDIC FUNCTIONAL GROUP” (Chugai Seiyaku Kabushiki Kaisha, priority 2021, published 2024).

Target: T1, Bcl-2 protein (Recombinant Human Bcl-2 Protein) (Homo sapiens, UniProt P10415)
T1 construct: purchased Novus NBP2-34889
Experiment: Binding evaluation of mixture library compounds to Bcl-2 using AS-MS (affinity selection mass spectrometry)
Details: AS-MS, mixture library, Bcl-2, ASMS Ratio(%)=(A−C)/B×100; for ASMS ratio (%) n = 1: replicate n = 1; for ASMS ratio (%) n = 2: replicate n = 2
Procedure, shortened: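 Affinity selection MS: Bcl-2 20 μM + 1200-cpd mixture, […]/cpd, Tris pH 7.4 buffer w/ Tween-20, DTT; 1 h 23° C dark; P-2 spin SEC; MeCN/MeOH extraction; RP LC/MS. ASMS Ratio(%) = (A−C)/B×100.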

T1 sequence (P10415 whole entry): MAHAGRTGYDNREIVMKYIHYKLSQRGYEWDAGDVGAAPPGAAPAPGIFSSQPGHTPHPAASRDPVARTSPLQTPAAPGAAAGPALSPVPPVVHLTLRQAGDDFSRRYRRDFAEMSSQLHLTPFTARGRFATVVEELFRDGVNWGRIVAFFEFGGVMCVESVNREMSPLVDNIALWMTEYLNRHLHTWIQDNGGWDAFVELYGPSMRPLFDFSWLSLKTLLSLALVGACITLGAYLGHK

| Compound | ASMS ratio (%) n = 1 [%] | ASMS ratio (%) n = 2 [%] |
| --- | --- | --- |
| CCOc1cccc(-c2cc(CN3CCN(c4ccc(C(=O)NS(=O)(=O)c5ccc(NCCSc6ccccc6)c([N+](=O)[O-])c5)cc4)CC3)cc(C(F)(F)F)c2)c1 [B2Q061-01, 4-[4-[[3-(3-Ethoxyphenyl)-5-(trifluoromethyl)phenyl]methyl]piperazin-1-yl]-N-[3-nitro-4-(2-phenylsulfanylethylamino)phenyl]sulfonylbenzamide] | 15.6 | −17.9 |
| CCOc1cncc(-c2cc(CN3CCN(c4ccc(C(=O)NS(=O)(=O)c5ccc(NCCSc6ccccc6)c([N+](=O)[O-])c5)cc4)CC3)cc(C(F)(F)F)c2)c1 [B2Q062-01, 4-[4-[[3-(5-Ethoxypyridin-3-yl)-5-(trifluoromethyl)phenyl]methyl]piperazin-1-yl]-N-[3-nitro-4-(2-phenylsulfanylethylamino)phenyl]sulfonylbenzamide] | 9.4 | −3.3 |
| CCOc1cccc(-c2cc(CN3CCN(c4ccc(C(=O)NS(=O)(=O)c5ccc(NCCSc6ccccc6)c([N+](=O)[O-])c5)cc4)CC3)cc(OC(F)(F)F)c2)c1 [B2Q063-01, 4-[4-[[3-(3-Ethoxyphenyl)-5-(trifluoromethoxy)phenyl]methyl]piperazin-1-yl]-N-[3-nitro-4-(2-phenylsulfanylethylamino)phenyl]sulfonylbenzamide] | 13.3 | −25.5 |
| CCOc1cncc(-c2cc(CN3CCN(c4ccc(C(=O)NS(=O)(=O)c5ccc(NCCSc6ccccc6)c([N+](=O)[O-])c5)cc4)CC3)cc(OC(F)(F)F)c2)c1 [B2Q064-01] | 8.6 | −1.6 |
| CCOc1cccc(-c2ccc(CN3CCN(c4ccc(C(=O)NS(=O)(=O)c5ccc(NCCSc6ccccc6)c([N+](=O)[O-])c5)cc4)CC3)c3ccccc23)c1 [B2Q065-01] | 30.6 | −1.6 |
| CCOc1cccc(C#Cc2ccccc2CN2CCN(c3ccc(C(=O)NS(=O)(=O)c4ccc(NCCSc5ccccc5)c([N+](=O)[O-])c4)cc3)CC2)c1 [B2Q069-01] | 8.8 | 11.0 |
| CCOc1cncc(C#Cc2ccccc2CN2CCN(c3ccc(C(=O)NS(=O)(=O)c4ccc(NCCSc5ccccc5)c([N+](=O)[O-])c4)cc3)CC2)c1 [B2Q070-01, 4-[4-[[2-[2-(5-Ethoxypyridin-3-yl)ethynyl]phenyl]methyl]piperazin-1-yl]-N-[3-nitro-4-(2-phenylsulfanylethylamino)phenyl]sulfonylbenzamide] | 14.3 | −9.0 |
| CCOc1cccc(-c2ccccc2CN2CCN(c3ccc(C(=O)NS(=O)(=O)c4ccc(NCCSc5ccccc5)c([N+](=O)[O-])c4)nn3)CC2)c1 [B2Q071-01, 6-[4-[[2-(3-Ethoxyphenyl)phenyl]methyl]piperazin-1-yl]-N-[3-nitro-4-(2-phenylsulfanylethylamino)phenyl]sulfonylpyridazine-3-carboxamide] | 25.0 | 11.2 |
| CCOc1cncc(-c2ccccc2CN2CCN(c3ccc(C(=O)NS(=O)(=O)c4ccc(NCCSc5ccccc5)c([N+](=O)[O-])c4)nn3)CC2)c1 [B2Q072-01, 6-[4-[[2-(5-Ethoxypyridin-3-yl)phenyl]methyl]piperazin-1-yl]-N-[3-nitro-4-(2-phenylsulfanylethylamino)phenyl]sulfonylpyridazine-3-carboxamide] | 10.2 | 11.4 |
| CCOc1cccc(-c2ccc(CN3CCN(c4ccc(C(=O)NS(=O)(=O)c5ccc(NCCSc6ccccc6)c([N+](=O)[O-])c5)nn4)CC3)cc2C)c1 [B2Q073-01] | 0.0 | 0.0 |
| CCOc1cncc(-c2ccc(CN3CCN(c4ccc(C(=O)NS(=O)(=O)c5ccc(NCCSc6ccccc6)c([N+](=O)[O-])c5)nn4)CC3)cc2C)c1 [B2Q074-01] | 18.8 | 15.4 |
| CCOc1cccc(-c2ccc(CN3CCN(c4ccc(C(=O)NS(=O)(=O)c5ccc(NCCSc6ccccc6)c([N+](=O)[O-])c5)nn4)CC3)c(CC)c2)c1 [B2Q075-01, 6-[4-[[4-(3-Ethoxyphenyl)-2-ethylphenyl]methyl]piperazin-1-yl]-N-[3-nitro-4-(2-phenylsulfanylethylamino)phenyl]sulfonylpyridazine-3-carboxamide] | 0.0 | 0.0 |
| CCOc1cncc(-c2ccc(CN3CCN(c4ccc(C(=O)NS(=O)(=O)c5ccc(NCCSc6ccccc6)c([N+](=O)[O-])c5)nn4)CC3)c(CC)c2)c1 [B2Q076-01, 6-[4-[[4-(5-Ethoxypyridin-3-yl)-2-ethylphenyl]methyl]piperazin-1-yl]-N-[3-nitro-4-(2-phenylsulfanylethylamino)phenyl]sulfonylpyridazine-3-carboxamide] | 0.0 | – |
| CCOc1cccc(-c2ccc(CN3CCN(c4ccc(C(=O)NS(=O)(=O)c5ccc(NCCSc6ccccc6)c([N+](=O)[O-])c5)nn4)CC3)cc2F)c1 [B2Q077-01, 6-[4-[[4-(3-Ethoxyphenyl)-3-fluorophenyl]methyl]piperazin-1-yl]-N-[3-nitro-4-(2-phenylsulfanylethylamino)phenyl]sulfonylpyridazine-3-carboxamide] | 14.7 | 17.2 |
| CCOc1cncc(-c2ccc(CN3CCN(c4ccc(C(=O)NS(=O)(=O)c5ccc(NCCSc6ccccc6)c([N+](=O)[O-])c5)nn4)CC3)cc2F)c1 [B2Q078-01] | 15.6 | 12.1 |
| CCOc1cccc(-c2ccc(CN3CCN(c4ccc(C(=O)NS(=O)(=O)c5ccc(NCCSc6ccccc6)c([N+](=O)[O-])c5)nn4)CC3)c(OC)c2)c1 [B2Q079-01, 6-[4-[[4-(3-Ethoxyphenyl)-2-methoxyphenyl]methyl]piperazin-1-yl]-N-[3-nitro-4-(2-phenylsulfanylethylamino)phenyl]sulfonylpyridazine-3-carboxamide] | 17.6 | 0.0 |
| CCOc1cncc(-c2ccc(CN3CCN(c4ccc(C(=O)NS(=O)(=O)c5ccc(NCCSc6ccccc6)c([N+](=O)[O-])c5)nn4)CC3)c(OC)c2)c1 [B2Q080-01, 6-[4-[[4-(5-Ethoxypyridin-3-yl)-2-methoxyphenyl]methyl]piperazin-1-yl]-N-[3-nitro-4-(2-phenylsulfanylethylamino)phenyl]sulfonylpyridazine-3-carboxamide] | 12.6 | 3.6 |
| CCOc1cccc(-c2cc(CN3CCN(c4ccc(C(=O)NS(=O)(=O)c5ccc(NCCSc6ccccc6)c([N+](=O)[O-])c5)nn4)CC3)cc(OCC)c2)c1 [B2Q081-01, 6-[4-[[3-Ethoxy-5-(3-ethoxyphenyl)phenyl]methyl]piperazin-1-yl]-N-[3-nitro-4-(2-phenylsulfanylethylamino)phenyl]sulfonylpyridazine-3-carboxamide] | −4.8 | 0.6 |
| CCOc1cncc(-c2cc(CN3CCN(c4ccc(C(=O)NS(=O)(=O)c5ccc(NCCSc6ccccc6)c([N+](=O)[O-])c5)nn4)CC3)cc(OCC)c2)c1 [B2Q082-01, 6-[4-[[3-Ethoxy-5-(5-ethoxypyridin-3-yl)phenyl]methyl]piperazin-1-yl]-N-[3-nitro-4-(2-phenylsulfanylethylamino)phenyl]sulfonylpyridazine-3-carboxamide] | 21.3 | 8.5 |
| CCOc1cccc(-c2cc(CN3CCN(c4ccc(C(=O)NS(=O)(=O)c5ccc(NCCSc6ccccc6)c([N+](=O)[O-])c5)nn4)CC3)cc(OC(C)C)c2)c1 [B2Q083-01, 6-[4-[[3-(3-Ethoxyphenyl)-5-propan-2-yloxyphenyl]methyl]piperazin-1-yl]-N-[3-nitro-4-(2-phenylsulfanylethylamino)phenyl]sulfonylpyridazine-3-carboxamide] | – | 0.0 |
| CCOc1cncc(-c2cc(CN3CCN(c4ccc(C(=O)NS(=O)(=O)c5ccc(NCCSc6ccccc6)c([N+](=O)[O-])c5)nn4)CC3)cc(OC(C)C)c2)c1 [B2Q084-01, 6-[4-[[3-(5-Ethoxypyridin-3-yl)-5-propan-2-yloxyphenyl]methyl]piperazin-1-yl]-N-[3-nitro-4-(2-phenylsulfanylethylamino)phenyl]sulfonylpyridazine-3-carboxamide] | 12.6 | −4.9 |
| CCOc1cccc(-c2cc(OC)c(CN3CCN(c4ccc(C(=O)NS(=O)(=O)c5ccc(NCCSc6ccccc6)c([N+](=O)[O-])c5)nn4)CC3)c(OC)c2)c1 [B2Q085-01, 6-[4-[[4-(3-Ethoxyphenyl)-2,6-dimethoxyphenyl]methyl]piperazin-1-yl]-N-[3-nitro-4-(2-phenylsulfanylethylamino)phenyl]sulfonylpyridazine-3-carboxamide] | 14.9 | 0.7 |
| CCOc1cncc(-c2cc(OC)c(CN3CCN(c4ccc(C(=O)NS(=O)(=O)c5ccc(NCCSc6ccccc6)c([N+](=O)[O-])c5)nn4)CC3)c(OC)c2)c1 [B2Q086-01, 6-[4-[[4-(5-Ethoxypyridin-3-yl)-2,6-dimethoxyphenyl]methyl]piperazin-1-yl]-N-[3-nitro-4-(2-phenylsulfanylethylamino)phenyl]sulfonylpyridazine-3-carboxamide] | −39.4 | 0.0 |
| CCOc1cccc(-c2cc(CN3CCN(c4ccc(C(=O)NS(=O)(=O)c5ccc(NCCSc6ccccc6)c([N+](=O)[O-])c5)nn4)CC3)cc(C(F)(F)F)c2)c1 [B2Q087-01, 6-[4-[[3-(3-Ethoxyphenyl)-5-(trifluoromethyl)phenyl]methyl]piperazin-1-yl]-N-[3-nitro-4-(2-phenylsulfanylethylamino)phenyl]sulfonylpyridazine-3-carboxamide] | 17.6 | −2.1 |
